This data set can be described thus: In vivo metabolism (pharmacokinetic) experiment in mice. Also noted: species or system male ICR mice. The conditions noted are these: male, ICR, mouse, po, 10 mg/kg, male ICR mice. The essentials:
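Fasted (12 h) male ICR mice received compound in 5% DMSO/5% Solutol HS15/90% saline at 2.5 mg/kg iv or 10 mg/kg po. Plasma and brain sampled 0.083–8 h (n=3 per time point) and analysed by LC-MS/MS. Parameters derived by non-compartmental analysis.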

For orientation: Cmax means the peak of the concentration-time curve.

Consider `CCNC1(c2ccccc2)CCc2nc(N)sc2C1` (racemic) [rac-A5, N^6-ethyl-6-phenyl-4,5,6,7-tetrahydrobenzothiazole-2,6-diamine], for which the bioavailability (oral 10 mg/kg vs iv 2.5 mg/kg, read-out: F (%)) stood at 63%. In addition, under “oral 10 mg/kg, plasma, read-out: AUC0-inf(po)”, the AUC(0-inf) amounted to 1010 ng·h/mL. Moreover, the Cmax (oral 10 mg/kg, plasma, read-out: Cmax (po)) worked out at 250 ng/mL. The half-life (oral 10 mg/kg, plasma, read-out: T1/2 (po) (converted)) was 2.43 h.

The values are drawn from patent US20260174739A1 (priority 2022, published 2026).
